Data published in article PMC7614683, “A small molecule PI3Kα activator for cardioprotection and neuroregeneration” (Nature, 2023).

Target: T1, full length p110α/p85α (Homo sapiens, UniProt P42336)
T1 construct: Full-length human p110α was expressed either in a complex with full-length human p85α (for HTS, biochemistry and HDX-MS); 6xHis tag followed by TEV protease site (N); host or cells: Spodoptera frugiperda Sf9, baculovirus
Assay: HDX-MS
Type: binding
Protocol: Sample preparation: HDX-MS experiments were carried out as described previously. […] In total, three biological replicates, i.e. three separate protein preparations, each with exchange experiments carried out in triplicate were conducted. Data presented in the manuscript is a single biological replicate. Data acquisition and analysis were as follows: Each sample was thawed and injected onto an M-Class Acquity UPLC with HDX Technology (Waters) kept at 0.1°C. Proteins were digested in-line using an Enzymate Pepsin Column (Waters, #186007233) at 15°C for 2 min at 200 μl/min. Peptic peptides were then eluted onto an Acquity UPLC BEH C18 Column (Waters, #186002346) equilibrated in Pepsin-A buffer (0.1% formic acid) and separated using a 5-35% gradient of Pepsin-B buffer (0.1% formic acid, 99% acetonitrile) over 7 min at a flowrate of 40 μl/min. Data were collected on a Waters Cyclic IMS, with an electrospray ionisation source, from 50-2000 m/z. Data were collected in the HDMS^E mode. A single pass of the cyclic IMS was conducted. A “blank” sample of protein dilution buffer with quench was run between samples, and carry-over of peptides was routinely monitored. Five replicates were used to identify non-deuterated peptides. Criteria used to include peptides in the HDX-MS dataset were: minimum intensity 5000, minimum sequence length 5, maximum sequence length 25, a minimum of 3 fragment ions, a minimum of 0.1 products per amino acid, a minimum score of 6.62, a maximum MH+ Error of 10 ppm, identification in at least two datasets with a retention time RSD of less than 10%. Data was analysed using Protein Lynx Global Server (Waters) and DynamX (Waters). All peptides were manually inspected for EX1 kinetics and sufficient quality of the peptide envelope. Data quality, experiment design, and reporting of data meets the criteria as determined by the HDX-MS community. Uptake files were created using Baryonyx. Data are available via ProteomeXchange with identifier PXD037721.

[1] = PK3CA_HUMAN peptide 334-341, time point 1 of 5
[2] = PK3CA_HUMAN peptide 334-341, time point 2 of 5
[3] = PK3CA_HUMAN peptide 334-341, time point 3 of 5
[4] = PK3CA_HUMAN peptide 334-341, time point 4 of 5
[5] = PK3CA_HUMAN peptide 334-341, time point 5 of 5
[6] = PK3CA_HUMAN peptide 342-356, time point 1 of 5
[7] = PK3CA_HUMAN peptide 342-356, time point 2 of 5
[8] = PK3CA_HUMAN peptide 342-356, time point 3 of 5
[9] = PK3CA_HUMAN peptide 342-356, time point 4 of 5
[10] = PK3CA_HUMAN peptide 342-356, time point 5 of 5
[11] = PK3CA_HUMAN peptide 356-368, time point 1 of 5
[12] = PK3CA_HUMAN peptide 356-368, time point 2 of 5
[13] = PK3CA_HUMAN peptide 356-368, time point 3 of 5
[14] = PK3CA_HUMAN peptide 356-368, time point 4 of 5
[15] = PK3CA_HUMAN peptide 356-368, time point 5 of 5
[16] = PK3CA_HUMAN peptide 369-380, time point 1 of 5
[17] = PK3CA_HUMAN peptide 369-380, time point 2 of 5
[18] = PK3CA_HUMAN peptide 369-380, time point 3 of 5
[19] = PK3CA_HUMAN peptide 369-380, time point 4 of 5
[20] = PK3CA_HUMAN peptide 369-380, time point 5 of 5
[21] = PK3CA_HUMAN peptide 371-380, time point 1 of 5
[22] = PK3CA_HUMAN peptide 371-380, time point 2 of 5
[23] = PK3CA_HUMAN peptide 371-380, time point 3 of 5
[24] = PK3CA_HUMAN peptide 371-380, time point 4 of 5
[25] = PK3CA_HUMAN peptide 371-380, time point 5 of 5

T1 sequence (P42336 whole entry): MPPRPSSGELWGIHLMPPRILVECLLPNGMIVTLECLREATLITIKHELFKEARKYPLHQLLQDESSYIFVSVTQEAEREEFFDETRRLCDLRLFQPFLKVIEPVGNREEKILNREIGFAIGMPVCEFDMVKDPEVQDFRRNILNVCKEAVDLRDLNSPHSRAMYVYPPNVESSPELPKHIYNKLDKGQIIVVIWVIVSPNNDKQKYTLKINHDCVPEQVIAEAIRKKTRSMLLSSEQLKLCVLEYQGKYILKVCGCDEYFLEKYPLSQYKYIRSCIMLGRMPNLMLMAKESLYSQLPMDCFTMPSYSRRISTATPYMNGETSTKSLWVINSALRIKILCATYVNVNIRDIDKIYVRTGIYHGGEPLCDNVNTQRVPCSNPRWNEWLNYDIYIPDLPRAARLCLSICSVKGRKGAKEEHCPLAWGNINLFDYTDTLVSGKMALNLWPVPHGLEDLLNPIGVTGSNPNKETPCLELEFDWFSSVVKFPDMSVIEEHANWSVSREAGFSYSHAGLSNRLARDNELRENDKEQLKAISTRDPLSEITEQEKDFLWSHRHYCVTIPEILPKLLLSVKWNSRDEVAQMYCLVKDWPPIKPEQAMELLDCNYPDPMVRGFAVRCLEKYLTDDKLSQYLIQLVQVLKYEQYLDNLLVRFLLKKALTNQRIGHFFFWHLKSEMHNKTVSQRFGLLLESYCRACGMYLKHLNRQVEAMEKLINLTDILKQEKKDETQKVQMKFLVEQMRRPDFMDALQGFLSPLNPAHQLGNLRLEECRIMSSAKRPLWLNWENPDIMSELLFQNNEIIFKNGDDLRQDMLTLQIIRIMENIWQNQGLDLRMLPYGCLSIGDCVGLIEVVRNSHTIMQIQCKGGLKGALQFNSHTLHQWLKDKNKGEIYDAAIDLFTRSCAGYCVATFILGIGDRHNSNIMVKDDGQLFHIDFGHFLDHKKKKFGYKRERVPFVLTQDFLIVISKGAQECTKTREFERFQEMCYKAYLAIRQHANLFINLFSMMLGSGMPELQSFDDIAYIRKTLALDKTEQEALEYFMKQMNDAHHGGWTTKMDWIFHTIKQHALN
T1 sequence (P27986 whole entry partner): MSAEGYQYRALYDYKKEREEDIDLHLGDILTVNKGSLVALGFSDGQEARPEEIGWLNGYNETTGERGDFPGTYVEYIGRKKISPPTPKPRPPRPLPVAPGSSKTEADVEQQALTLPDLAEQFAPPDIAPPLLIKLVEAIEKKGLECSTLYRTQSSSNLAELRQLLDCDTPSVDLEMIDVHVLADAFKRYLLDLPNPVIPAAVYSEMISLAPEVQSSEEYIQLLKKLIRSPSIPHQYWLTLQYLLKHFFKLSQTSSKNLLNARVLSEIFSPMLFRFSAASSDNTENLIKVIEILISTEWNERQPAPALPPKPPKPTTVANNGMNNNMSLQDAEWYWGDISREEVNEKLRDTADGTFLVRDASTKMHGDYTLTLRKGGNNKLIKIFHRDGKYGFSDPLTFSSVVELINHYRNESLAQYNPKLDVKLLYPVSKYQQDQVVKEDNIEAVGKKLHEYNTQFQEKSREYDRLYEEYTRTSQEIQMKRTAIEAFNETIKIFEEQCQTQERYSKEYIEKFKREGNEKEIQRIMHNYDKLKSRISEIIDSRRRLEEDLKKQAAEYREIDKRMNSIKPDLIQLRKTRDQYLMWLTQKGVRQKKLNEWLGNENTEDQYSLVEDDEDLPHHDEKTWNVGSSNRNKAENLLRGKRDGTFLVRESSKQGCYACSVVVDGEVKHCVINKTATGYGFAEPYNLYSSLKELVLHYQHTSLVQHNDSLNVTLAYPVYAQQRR

For `CCN1CCN(c2ccc(Nc3cc(Nc4cccc5c4N(C(C)=O)CC5)ccn3)cc2)CC1` [Compound 1938], the “HDX difference (Da)” value (PK3CA_HUMAN peptide 326-333, time point 5 of 5) was -0.29 Da, the “HDX difference (%D)” value [1] was -1.6% and the “HDX difference (Da)” value [1] was -0.11 Da. For the same compound, the “HDX difference (%D)” value [2] was -0.186%, the “HDX difference (Da)” value [2] was -0.013 Da and the “HDX difference (%D)” value [3] was -0.0541%. For the same compound, the “HDX difference (Da)” value [3] was -0.00379 Da, the “HDX difference (%D)” value [4] was 0.367% and the “HDX difference (Da)” value [4] was 0.0257 Da. The “HDX difference (%D)” value [5] was 0.162%, the “HDX difference (Da)” value [5] was 0.0113 Da and the “HDX difference (%D)” value [6] was -1.7%. For the same compound, the “HDX difference (Da)” value [6] was -0.24 Da, the “HDX difference (%D)” value [7] was 0.845% and the “HDX difference (Da)” value [7] was 0.12 Da. For the same compound, the “HDX difference (%D)” value [8] was 0.00161%, the “HDX difference (Da)” value [8] was 0.000225 Da and the “HDX difference (%D)” value [9] was 1.1%. For the same compound, the “HDX difference (Da)” value [9] was 0.16 Da, the “HDX difference (%D)” value [10] was 0.6% and the “HDX difference (Da)” value [10] was 0.09 Da. For the same compound, the “HDX difference (%D)” value [11] was -0.8%, the “HDX difference (Da)” value [11] was -0.10 Da and the “HDX difference (%D)” value [12] was -1.0%. The “HDX difference (Da)” value [12] was -0.12 Da, the “HDX difference (%D)” value [13] was 0.8% and the “HDX difference (Da)” value [13] was 0.09 Da. For the same compound, the “HDX difference (%D)” value [14] was 0.0672%, the “HDX difference (Da)” value [14] was 0.00807 Da and the “HDX difference (%D)” value [15] was 0.6%. The “HDX difference (Da)” value [15] was 0.0745 Da, the “HDX difference (%D)” value [16] was -2.7% and the “HDX difference (Da)” value [16] was -0.30 Da. For the same compound, the “HDX difference (%D)” value [17] was 1.2%, the “HDX difference (Da)” value [17] was 0.14 Da and the “HDX difference (%D)” value [18] was -1.1%. For the same compound, the “HDX difference (Da)” value [18] was -0.12 Da, the “HDX difference (%D)” value [19] was -0.8% and the “HDX difference (Da)” value [19] was -0.08 Da. The “HDX difference (%D)” value [20] was 0.6%, the “HDX difference (Da)” value [20] was 0.07 Da and the “HDX difference (%D)” value [21] was -3.7%. The “HDX difference (Da)” value [21] was -0.33 Da, the “HDX difference (%D)” value [22] was -0.454% and the “HDX difference (Da)” value [22] was -0.04 Da. The “HDX difference (%D)” value [23] was -1.7%, the “HDX difference (Da)” value [23] was -0.15 Da and the “HDX difference (%D)” value [24] was -2.6%. For the same compound, the “HDX difference (Da)” value [24] was -0.23 Da, the “HDX difference (%D)” value [25] was 0.329% and the “HDX difference (Da)” value [25] was 0.03 Da. For the same compound, the “HDX difference, percentage” value (PK3CA_HUMAN peptide 457-466, time column 1 of 5, deuterium exchange time 0.005) was -0.467%, the “HDX difference, percentage” value (PK3CA_HUMAN peptide 457-466, time column 2 of 5, deuterium exchange time 0.05) was -0.449% and the “HDX difference, percentage” value (PK3CA_HUMAN peptide 457-466, time column 3 of 5, deuterium exchange time 0.5) was 0.346%. The “HDX difference, percentage” value (PK3CA_HUMAN peptide 457-466, time column 4 of 5, deuterium exchange time 5) was -0.9%, the “HDX difference, percentage” value (PK3CA_HUMAN peptide 457-466, time column 5 of 5) was -1.0% and the “HDX difference, percentage” value (PK3CA_HUMAN peptide 467-476, time column 1 of 5, deuterium exchange time 0.005) was -1.4%. For the same compound, the “HDX difference, percentage” value (PK3CA_HUMAN peptide 467-476, time column 2 of 5, deuterium exchange time 0.05) was -0.5%, the “HDX difference, percentage” value (PK3CA_HUMAN peptide 467-476, time column 3 of 5, deuterium exchange time 0.5) was -0.7% and the “HDX difference, percentage” value (PK3CA_HUMAN peptide 467-476, time column 4 of 5, deuterium exchange time 5) was -0.9%. The “HDX difference, percentage” value (PK3CA_HUMAN peptide 467-476, time column 5 of 5) was -0.552%, the “HDX difference, percentage” value (PK3CA_HUMAN peptide 477-486, time column 1 of 5, deuterium exchange time 0.005) was -1.6% and the “HDX difference, percentage” value (PK3CA_HUMAN peptide 477-486, time column 2 of 5, deuterium exchange time 0.05) was 0.186%. For the same compound, the “HDX difference, percentage” value (PK3CA_HUMAN peptide 477-486, time column 3 of 5, deuterium exchange time 0.5) was 0.327%, the “HDX difference, percentage” value (PK3CA_HUMAN peptide 477-486, time column 4 of 5, deuterium exchange time 5) was -0.0919% and the “HDX difference, percentage” value (PK3CA_HUMAN peptide 477-486, time column 5 of 5) was 0.0363%. The “HDX difference, percentage” value (PK3CA_HUMAN peptide 487-495, time column 1 of 5, deuterium exchange time 0.005) was -0.747%, the “HDX difference, percentage” value (PK3CA_HUMAN peptide 487-495, time column 2 of 5, deuterium exchange time 0.05) was 0.4% and the “HDX difference, percentage” value (PK3CA_HUMAN peptide 487-495, time column 3 of 5, deuterium exchange time 0.5) was 0.0115%. For the same compound, the “HDX difference, percentage” value (PK3CA_HUMAN peptide 487-495, time column 4 of 5, deuterium exchange time 5) was -0.8%, the “HDX difference, percentage” value (PK3CA_HUMAN peptide 487-495, time column 5 of 5) was -0.2% and the “HDX difference, percentage” value (PK3CA_HUMAN peptide 487-498, time column 1 of 5, deuterium exchange time 0.005) was -0.239%. For the same compound, the “HDX difference, percentage” value (PK3CA_HUMAN peptide 487-498, time column 2 of 5, deuterium exchange time 0.05) was -0.449%, the “HDX difference, percentage” value (PK3CA_HUMAN peptide 487-498, time column 3 of 5, deuterium exchange time 0.5) was 0.176% and the “HDX difference, percentage” value (PK3CA_HUMAN peptide 487-498, time column 4 of 5, deuterium exchange time 5) was -1.0%.
